Reference: patent US8541444B2, “Triazolopyridine 11-beta hydroxysteroid dehydrogenase type I inhibitors” (Bristol-Myers Squibb Company, priority 2007, dated 2013)

molecular target: T1, recombinant human 11beta-HSD1 (Homo sapiens, UniProt P28845); test: 11β-HSD1 SPA enzyme assay (in vitro inhibition of recombinant human 11beta-HSD1); assay type: biochemical; settings: human 11β-HSD1 microsomes from HEK 293 EBNA cells, 3H-cortisone 40 nM, 4 hrs room temperature
T1 construct: Full length recombinant human 11β-HSD1 cDNAs and the cDNA encoding human 11β-HSD2 were expressed stably in HEK 293 EBNA cells; made in house; microsome fraction used
Method: The in vitro inhibition of recombinant human 11beta-HSD1 was determined as follows.
The supernatant was further centrifuged at 105,000×g for […]. The 105,000×g pellet was resuspended in buffer H and centrifuged at 105,000×g for 60 min. […] Aliquots were stored at −80° C. until needed. The protein concentration was measured by the BioRad method using BSA standard.
Compounds were dissolved in DMSO to obtain 10 mM stock concentrations. From the 10 mM stock, the compounds were diluted in DMSO to achieve the concentrations.
11β-HSD1 SPA Enzyme Assay
11β-HSD1 was assayed by Scintillation Proximity assay in a 384-well Perkin Elmer white plate. The dose response of the compounds was determined using 11 half-log dilutions of compound in DMSO in duplicate. To each well, 0.5 μl of compound dilution in DMSO were added. 15 μl of assay buffer (for blanks) or 15 μl of human microsomes in assay buffer were added next and the plates were incubated for 10 min at room temperature. The final microsomal protein concentration was 1.1 μg/assay. Duplicates were in the same plate one row below the other. 10 μl of ^3H-cortisone (final concentration 40 nM) was added to each well and the plate was spun down to mix and bring down the contents to the bottom of the wells. The plates were incubated at room temperature with gentle shaking for 4 hrs. […] Then, 0.5 mg of yttrium silicate SPA beads coupled to anti-cortisol antibody in 20 μl were added to all the wells of plate, which were spun down once more and incubated at room temperature overnight. The plate was read in a TopCount® (1 min/well). Data were uploaded automatically to Tool Set, a Lead Evaluation informatics program for data capture and calculation. Graphs were generated with the Curve Master program.

T1 sequence (P28845 whole entry): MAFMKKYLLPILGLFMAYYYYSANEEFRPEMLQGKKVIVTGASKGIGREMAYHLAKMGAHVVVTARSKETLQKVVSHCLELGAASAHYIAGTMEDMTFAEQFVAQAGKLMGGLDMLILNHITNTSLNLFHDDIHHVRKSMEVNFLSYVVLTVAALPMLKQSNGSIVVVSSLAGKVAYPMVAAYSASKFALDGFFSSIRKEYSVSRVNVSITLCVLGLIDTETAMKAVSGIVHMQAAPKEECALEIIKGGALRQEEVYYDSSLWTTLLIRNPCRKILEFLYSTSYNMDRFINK

SMILES	IC50
CC(C)(O)c1cccn2c(C3(c4ccc(Cl)cc4)CC3)nnc12 [Example 1, 2-(3-(1-(4-Chlorophenyl)cyclopropyl)-[1,2,4]triazolo[4,3-a]pyridin-8-yl) propan-2-ol]	0.0023 µM
CC(C)(O)c1cccc2c(C3(c4ccc(Cl)cc4)CC3)nnn12 [Example 6, 2-(3-(1-(4-Chlorophenyl)cyclopropyl)-[1,2,3]-triazolo[1,5-a]pyridin-7-yl) propan-2-ol]	0.02 µM
CC(C)(O)c1cccn2c(C3(c4ccc(Cl)c(Cc5nnn[nH]5)c4)CC3)nnc12 [Example 42]	0.072 µM
CC(C)(O)c1cccn2c(C3(c4ccc(-c5ccc(F)cc5)cc4)CC3)nnc12 [Example 51]	0.0004 µM
CC(C)(O)c1cccn2c(C3(c4ccc(Cl)cc4F)CC3)nnc12 [Example 54]	0.0007 µM
CC(C)(c1cccn2c(C3(c4ccc(Cl)cc4)CCC3)nnc12)c1nnnn1CCC#N [Example 59]	5.49 µM
CC(C)(O)c1cccn2c(C3(C(=O)O)CC3)nnc12 [Example 80]	7.7 µM
CN(C)C(=O)c1ccc(C2(c3nnc4c(C(C)(C)O)cccn34)CC2)cc1 [Example 86]	0.035 µM

The next lines start with the values.

IC50	SMILES
1.38 µM	Cc1ccc(S(=O)(=O)C2(c3nnc4c(C(C)(C)O)cccn34)CC2)cc1C [Example 90]
0.191 µM	CC(C)(O)c1cccn2c(C3(c4nc(-c5ccccc5)c[nH]4)CC3)nnc12 [Example 104]
0.0006 µM	CC(C)(O)c1cccn2c(C3(c4nc(-c5ccc(F)cc5)cs4)CC3)nnc12 [Example 109]
0.104 µM	CC(C)(O)c1cccn2c(C3(c4nnn(Cc5ccc(F)cc5)n4)CC3)nnc12 [Example 110]
0.0005 µM	CC(C)(O)c1cccn2c(C3(c4nc(-c5ccc(Cl)cc5)cs4)CC3)nnc12 [Example 111]
2.82 µM	CC(C)(O)c1cccn2c(C3(c4nnn(Cc5ccccc5)n4)CC3)nnc12 [Example 112]

molecular target: T2, 11beta-HSD1 (Mus musculus, UniProt P50172); test: In vivo inhibition of 11beta-HSD1: DHC to corticosterone conversion in DIO mice; settings: 30 mpk oral, plasma corticosterone AUC after DHC 10 mg/kg given 60 minutes post compound
T2 construct: from tissue; host or cells: whole animal: diet induced obese (DIO) mice, Jackson Laboratory
Method: The in vivo inhibition of […] 11beta-HSD1 was determined as follows.
Studies were conducted utilizing diet induced obese (DIO) mice obtained from Jackson Laboratory (ME, USA). These mice were fed a 60% fat diet (Research Diets D12492) soon after weaning and kept on this diet for 24 weeks. These mice were individually housed. […]. The animals continued on this diet and were utilized for experimentation at 30 to 32 weeks of age, at which time these mice weighed 45 to 55 grams.
The basic model of 11-dehydrocorticosterone (DHC) administration to mice to produce corticosterone has been reported in the literature for clinical and preclinical evaluation of the activity of 11β-HSD. […] Plasma was separated and collected and immediately frozen at −20° C. until corticosterone analysis could be assessed.
Plasma Corticosterone was measured using an EIA (IDS AC-14F1). Samples were measured at (1:2) for the −30(or −60 minute) and 0 time point and (1:10) for the 30, 60 and 120 minutes time points. AUC was calculated using Graphpad and the zero timepoint was used as the baseline. One way ANOVA was calculated using Sigmastat. […]
The vehicle utilized for the suspension of the compounds was 0.5% methocel; 0.1% tween 80 in water. […] Compounds were administered in 7.5 ml/kg volumes at final dosages of 0.1 to 300 mg/kg depending on the study and compound evaluated.

T2 sequence (P50172 whole entry): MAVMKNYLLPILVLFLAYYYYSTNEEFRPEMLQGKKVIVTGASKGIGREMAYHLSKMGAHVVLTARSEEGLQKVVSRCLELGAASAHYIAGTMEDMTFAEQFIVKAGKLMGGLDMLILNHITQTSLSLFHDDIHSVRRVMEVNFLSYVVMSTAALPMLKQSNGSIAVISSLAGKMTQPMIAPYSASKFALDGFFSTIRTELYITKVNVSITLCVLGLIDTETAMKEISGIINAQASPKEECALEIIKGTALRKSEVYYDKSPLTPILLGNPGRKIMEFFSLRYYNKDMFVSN

inhibition at 30 mg/kg	SMILES
53%	CC(C)(O)c1cccn2c(C3(c4ccc(Cl)cc4)CC3)nnc12 [Example 1, 2-(3-(1-(4-Chlorophenyl)cyclopropyl)-[1,2,4]triazolo[4,3-a]pyridin-8-yl) propan-2-ol]
69%	CC(C)(O)c1cccn2c(C3(c4ccc(Cl)cc4)CCC3)nnc12 [Example 11]

system: not listed separately; test: Moisture sorption study; assay type: physicochemical; settings: Form N-1 of the HCl salt; range from about 25 to about 75% RH at 25° C.
Method: Moisture sorption isotherms were collected in a VTI SGA-100 Symmetric Vapor Analyzer using approximately 10 mg of sample. The sample was dried at 60° C. until the loss rate of 0.0005 wt %/min was obtained for 10 minutes. The sample was tested at 25° C. and 3 or 4, 5, 15, 25, 35, 45, 50, 65, 75, 85, and 95% RH. Equilibration at each RH was reached when the rate of 0.0003 wt %/min for 35 minutes was achieved or a maximum of 600 minutes.

hygroscopicity (moisture sorption isotherm)	SMILES
non-hygroscopic	CC(C)(O)c1cccn2c(C3(c4ccc(Cl)cc4)CC3)nnc12.Cl [Example 1G, 2-(3-(1-(4-Chlorophenyl)cyclopropyl)-[1,2,4]triazolo[4,3-a]pyridin-8-yl)propan-2-ol HCl Salt]
